Drawing on patent publication US11447481B2, “Microbiocidal oxadiazole derivatives” (SYNGENTA PARTICIPATIONS AG, priority 2017, dated 2022), this text covers pest or weed control, inhibition of growth and melting point for 17 compounds.

For series [1], the system named is Puccinia recondita f. sp. tritici. Put plainly: Fungicidal activity against Puccinia recondita f. sp. tritici / wheat / leaf disc preventative (brown rust). The format is in vivo. The conditions noted are these: foliar, wheat leaf segments, preventative (inoculated 1 day after application), compared to untreated control. How it is done:
(§1) Leaf disks or leaf segments of various plant species are cut from plants grown in a greenhouse. The cut leaf disks or segments are placed in multiwell plates (24-well format) onto water agar. The leaf disks are sprayed with a test solution before (preventative) or after (curative) inoculation. Compounds to be tested are prepared as DMSO solutions (max. 10 mg/ml) which are diluted to the appropriate concentration with 0.025% Tween20 just before spraying. The inoculated leaf disks or segments are incubated under defined conditions (temperature, relative humidity, light, etc.) according to the respective test system. A single evaluation of disease level is carried out 3 to 14 days after inoculation, depending on the pathosystem. Percent disease control relative to the untreated check leaf disks or segments is then calculated.
(§2) Wheat leaf segments cv. Kanzler are placed on agar in multiwell plates (24-well format) and sprayed with the formulated test compound diluted in water. The leaf disks are inoculated with a spore suspension of the fungus 1 day after application. The inoculated leaf segments are incubated at 19° C. and 75% rh under a light regime of 12 h light/12 h darkness in a climate cabinet and the activity of a compound is assessed as percent disease control compared to untreated when an appropriate level of disease damage appears in untreated check leaf segments (7-9 days after application).

The test system is the same in series [2]. Put plainly: Fungicidal activity against Puccinia recondita f. sp. tritici / wheat / leaf disc curative (brown rust). The conditions noted are these: foliar, 24 h, wheat leaf segments, curative (applied 1 day after inoculation), compared to untreated control. The format is in vivo. As for the experimental part: as §1
as §2, with “format).” for “format) and sprayed with the formulated test compound diluted in water.”, “segments” for “disks”, “fungus. Plates are stored in darkness at 19° C. and 75% rh. The formulated test compound diluted in water is applied” for “fungus”, “inoculation.” for “application.”, “The” for “The inoculated”, “(6-8” for “(7-9”

For another series, the system named is Phakopsora pachyrhizi. The series can be described thus: Fungicidal activity against Phakopsora pachyrhizi / soybean / leaf disc preventative (Asian soybean rust). The format is in vivo. The conditions noted are these: foliar, soybean leaf disks, compared to untreated control. As for the experimental part: as §1
Soybean leaf disks are placed on water agar in multiwell plates (24-well format) and sprayed with the formulated test compound diluted in water. One day after application leaf discs are inoculated by spraying a spore suspension on the lower leaf surface. After an incubation period in a climate cabinet of 24-36 hours in darkness at 20° C. and 75% rh leaf disc are kept at 20° C. with 12 h light/day and 75% rh. The activity of a compound is assessed as percent disease control compared to untreated when an appropriate level of disease damage appears in untreated check leaf disks (12-14 days after application).

In series [3] the test system is Glomerella lagenarium (Colletotrichum lagenarium). The series can be described thus: Fungicidal activity against Glomerella lagenarium (Colletotrichum lagenarium) liquid culture / cucumber / preventative (anthracnose). The format is cell-based. The conditions noted are these: Colletotrichum orbiculare, liquid culture (PDB), growth inhibition measured photometrically 3-4 days after application, compared to untreated control. How it is done: Mycelia fragments or conidia suspensions of a fungus prepared either freshly from liquid cultures of the fungus or from cryogenic storage, are directly mixed into nutrient broth. DMSO solutions of the test compound (max. 10 mg/ml) are diluted with 0.025% Tween20 by a factor of 50 and 10 µl of this solution is pipetted into a microtiter plate (96-well format). The nutrient broth containing the fungal spores/mycelia fragments is then added to give an end concentration of the tested compound. The test plates are incubated in the dark at 24° C. and 96% relative humidity. The inhibition of fungal growth is determined photometrically after 2 to 7 days, depending on the pathosystem, and percent antifungal activity relative to the untreated check is calculated.
Conidia of the fungus from cryogenic storage are directly mixed into nutrient broth (PDB potato dextrose broth). After placing a (DMSO) solution of test compound into a microtiter plate (96-well format), the nutrient broth containing the fungal spores is added. The test plates are incubated at 24° C. and the inhibition of growth is measured photometrically 3-4 days after application.

One may read the pest or weed control as the degree to which the test organism was suppressed or injured, in per cent. A low value points to a weak effect. By inhibition of growth is commonly meant the change of the read-out against control, counted positive when it falls. A high value points to strong suppression. Usually melting point stands for the temperature of the solid-liquid transition. `O=c1ccc(F)cn1Cc1ccc(-c2noc(C(F)(F)F)n2)cc1` [Compound C-6, 5-fluoro-1-[[4-[5-(trifluoromethyl)-1,2,4-oxadiazol-3-yl]phenyl]methyl]pyridin-2-one] gave a melting point of 125 to 126 °C. This compound also showed a pest or weed control at 200 ppm in series [1] of no less than 80%. This compound also showed a pest or weed control at 200 ppm in series [2] of no less than 80%. This compound also displayed a pest or weed control at 200 ppm with Phakopsora pachyrhizi of no less than 80%. For the same compound, in series [3], the inhibition of growth at 20 ppm was no less than 80%.

Turning to `O=c1ccccn1Cc1ccc(-c2noc(C(F)(F)F)n2)c(F)c1F` [Compound C-12, 1-[[2,3-difluoro-4-[5-(trifluoromethyl)-1,2,4-oxadiazol-3-yl]phenyl]methyl]pyridin-2-one], the melting point lay within 154 to 156 °C. This compound also gave a pest or weed control at 200 ppm in series [1] of no less than 80%. For the same compound, the pest or weed control at 200 ppm in series [2] was no less than 80%. For the same compound, in the series on Phakopsora pachyrhizi, the pest or weed control at 200 ppm was no less than 80%. For the same compound, the inhibition of growth at 20 ppm in series [3] was no less than 80%.

`COc1nn(Cc2ccc(-c3noc(C(F)(F)F)n3)cc2)c(=O)n1C` [Compound B-4, 5-methoxy-4-methyl-2-[[4-[5-(trifluoromethyl)-1,2,4-oxadiazol-3-yl]phenyl]methyl]-1,2,4-triazol-3-one] gave a melting point of 129 to 130.8 °C. The same compound came in with a pest or weed control at 200 ppm in series [1] of no less than 80%. In series [2], the pest or weed control at 200 ppm was no less than 80%. In the series on Phakopsora pachyrhizi, the pest or weed control at 200 ppm was no less than 80%. The compound also showed an inhibition of growth at 20 ppm in series [3] of no less than 80%.

Compound `O=C1OCC(c2ccc(Cl)cc2Cl)=NN1Cc1ccc(-c2noc(C(F)(F)F)n2)cc1` [Compound E-1, 5-(2,4-dichlorophenyl)-3-[[4-[5-(trifluoromethyl)-1,2,4-oxadiazol-3-yl]phenyl]methyl]-6H-1,3,4-oxadiazin-2-one] yielded a melting point of 139.5 to 140 °C.

Compound `Cc1nn(Cc2ccc(-c3noc(C(F)(F)F)n3)cc2)c(=O)o1` [Compound B-3, 5-methyl-3-[[4-[5-(trifluoromethyl)-1,2,4-oxadiazol-3-yl]phenyl]methyl]-1,3,4-oxadiazol-2-one] yielded a melting point of 133.8 to 136 °C. For the same compound, the pest or weed control at 200 ppm in series [1] was no less than 80%. For the same compound, the pest or weed control at 200 ppm in series [2] was no less than 80%. Moreover, the pest or weed control at 200 ppm in the series on Phakopsora pachyrhizi was no less than 80%. In addition, the inhibition of growth at 20 ppm in series [3] was no less than 80%.

With `Cn1nnn(Cc2ccc(-c3noc(C(F)(F)F)n3)cc2)c1=O` [Compound B-6, 1-methyl-4-[[4-[5-(trifluoromethyl)-1,2,4-oxadiazol-3-yl]phenyl]methyl]tetrazol-5-one], the melting point lay within 104 to 106 °C. Besides, the pest or weed control at 200 ppm in series [1] is no less than 80%. The compound also came in with a pest or weed control at 200 ppm in series [2] of no less than 80%. This compound yielded a pest or weed control at 200 ppm in the series on Phakopsora pachyrhizi of no less than 80%. In series [3], this compound registered an inhibition of growth at 20 ppm of no less than 80%.

Compound `Cc1ccc(=O)n(Cc2ccc(-c3noc(C(F)(F)F)n3)cc2)c1` [Compound C-10, 5-methyl-1-[[4-[5-(trifluoromethyl)-1,2,4-oxadiazol-3-yl]phenyl]methyl]pyridin-2-one] registered a melting point of 174 to 176 °C. In addition, the pest or weed control at 200 ppm in series [1] is no less than 80%. The same compound yielded a pest or weed control at 200 ppm in series [2] of no less than 80%. In addition, in the series with Phakopsora pachyrhizi, the pest or weed control at 200 ppm was no less than 80%. Also, the inhibition of growth at 20 ppm in series [3] is no less than 80%.

For `Cn1nc(Cl)n(-c2ccc(-c3noc(C(F)(F)F)n3)cc2)c1=O` [Compound F-1, 5-chloro-2-methyl-4-[4-[5-(trifluoromethyl)-1,2,4-oxadiazol-3-yl]phenyl]-1,2,4-triazol-3-one], the melting point was in the range of 161 to 167 °C. In series [1], the pest or weed control at 200 ppm was no less than 80%. For the same compound, in series [3], the inhibition of growth at 20 ppm is no less than 80%.

In turn, `Cn1nnn(CCc2ccc(-c3noc(C(F)(F)F)n3)cc2)c1=O` [Compound D-1, 1-methyl-4-[2-[4-[5-(trifluoromethyl)-1,2,4-oxadiazol-3-yl]phenyl]ethyl]tetrazol-5-one] came in with a melting point of 92 to 94 °C. The same compound gave a pest or weed control at 200 ppm in series [1] of no less than 80%. Also, the pest or weed control at 200 ppm in series [2] was no less than 80%. The compound further yielded a pest or weed control at 200 ppm in the series with Phakopsora pachyrhizi of no less than 80%. The compound further had an inhibition of growth at 20 ppm in series [3] of no less than 80%.

In the case of `Cc1ccn(Cc2ccc(-c3noc(C(F)(F)F)n3)cc2)c(=O)c1` [Compound C-5, 4-methyl-1-[[4-[5-(trifluoromethyl)-1,2,4-oxadiazol-3-yl]phenyl]methyl]pyridin-2-one], the melting point fell in the range of 156 to 158 °C. In series [1], this compound had a pest or weed control at 200 ppm of no less than 80%. This compound also displayed a pest or weed control at 200 ppm in series [2] of no less than 80%. Moreover, the pest or weed control at 200 ppm in the series with Phakopsora pachyrhizi was no less than 80%. In addition, the inhibition of growth at 20 ppm in series [3] is no less than 80%.

As to `Cc1ccn(C(C)c2ccc(-c3noc(C(F)(F)F)n3)cc2)c(=O)c1` (centres unmarked) [Compound C-1], the melting point fell in the range of 117 to 120 °C. In series [1], the pest or weed control at 200 ppm is no less than 80%. Further, the pest or weed control at 200 ppm in series [2] was no less than 80%. Moreover, in the series with Phakopsora pachyrhizi, the pest or weed control at 200 ppm is no less than 80%. In addition, the inhibition of growth at 20 ppm in series [3] was no less than 80%.

In turn, `O=c1ccc(Br)nn1Cc1ccc(-c2noc(C(F)(F)F)n2)cc1` [Compound C-2, 6-bromo-2-[[4-[5-(trifluoromethyl)-1,2,4-oxadiazol-3-yl]phenyl]methyl]pyridazin-3-one] came in with a melting point of 106.5 to 107.6 °C. In addition, the pest or weed control at 200 ppm in series [1] is no less than 80%. Also, the pest or weed control at 200 ppm in series [2] is no less than 80%. Besides, the pest or weed control at 200 ppm with Phakopsora pachyrhizi was no less than 80%. Further, the inhibition of growth at 20 ppm in series [3] was no less than 80%.

As for `Cc1ccn(CCc2ccc(-c3noc(C(F)(F)F)n3)cc2)c(=O)c1` [Compound C-18, 4-methyl-1-[2-[4-[5-(trifluoromethyl)-1,2,4-oxadiazol-3-yl]phenyl]ethyl]pyridin-2-one], the melting point fell in the range of 146 to 148 °C. The pest or weed control at 200 ppm in series [1] was no less than 80%. In addition, in series [2], the pest or weed control at 200 ppm is no less than 80%. This compound yielded an inhibition of growth at 20 ppm in series [3] of no less than 80%.

In turn, `O=c1ccccn1Cc1ccc(-c2noc(C(F)(F)F)n2)cc1` [Compound C-14, 1-[[4-[5-(trifluoromethyl)-1,2,4-oxadiazol-3-yl]phenyl]methyl]pyridin-2-one] registered a melting point of 142 to 144 °C. The compound also came in with a pest or weed control at 200 ppm in series [1] of no less than 80%. Moreover, the pest or weed control at 200 ppm in series [2] was no less than 80%. In the series with Phakopsora pachyrhizi, this compound registered a pest or weed control at 200 ppm of no less than 80%. The inhibition of growth at 20 ppm in series [3] was no less than 80%.

The compound `O=c1ccc(C(F)(F)F)cn1Cc1ccc(-c2noc(C(F)(F)F)n2)cc1` [Compound C-9, 5-(trifluoromethyl)-1-[[4-[5-(trifluoromethyl)-1,2,4-oxadiazol-3-yl]phenyl]methyl]pyridin-2-one] yielded a melting point of 131 to 133 °C. The pest or weed control at 200 ppm in series [1] is no less than 80%. This compound also registered a pest or weed control at 200 ppm in series [2] of no less than 80%. The same compound returned a pest or weed control at 200 ppm in the series on Phakopsora pachyrhizi of no less than 80%. Also, the inhibition of growth at 20 ppm in series [3] was no less than 80%.

For `Cn1nnn(Cc2ccc(-c3noc(C(F)(F)F)n3)c(F)c2)c1=O` [Compound B-5, 1-[[3-fluoro-4-[5-(trifluoromethyl)-1,2,4-oxadiazol-3-yl]phenyl]methyl]-4-methyl-tetrazol-5-one], the pest or weed control at 200 ppm (in series [1]; in series [2]; in the series on Phakopsora pachyrhizi) was no less than 80% in each case. In series [3], this compound returned an inhibition of growth at 20 ppm of no less than 80%.

As to `O=c1sc(-c2ccccc2)nn1Cc1ccc(-c2noc(C(F)(F)F)n2)cc1` [Compound B-2, 5-phenyl-3-[[4-[5-(trifluoromethyl)-1,2,4-oxadiazol-3-yl]phenyl]methyl]-1,3,4-thiadiazol-2-one], the melting point was in the range of 111.1 to 114 °C. The inhibition of growth at 20 ppm in series [3] was no less than 80%.
